Several values for one entry are separate records, joined by “and”; a condition that tells them apart may be missing. Equal values may be shown once. Entries after “also recorded” stand apart in the source; their conditions may differ.
Tests used:
hPAR2 = target: T1, hPAR2 (Homo sapiens, UniProt P55085); test: Ca^2+ flux assay, agonist mode, 1321N1-hPAR2 cells; format: cell-based; parameters: Ca^2+ mobilisation tested as agonist, Fig 1c source data / Ca2+ response (Fig 2c), individual replicate values: unit not given here; settings: for Ca2+ response (Fig 2c), individual replicate values: hPAR2; for Ca^2+ mobilisation tested as agonist, Fig 1c source data: log[compound], individual data points; for agonist activity (tested as agonists): Ca^2+ assay and other signalling assays
T1 sequence (P55085 26-397): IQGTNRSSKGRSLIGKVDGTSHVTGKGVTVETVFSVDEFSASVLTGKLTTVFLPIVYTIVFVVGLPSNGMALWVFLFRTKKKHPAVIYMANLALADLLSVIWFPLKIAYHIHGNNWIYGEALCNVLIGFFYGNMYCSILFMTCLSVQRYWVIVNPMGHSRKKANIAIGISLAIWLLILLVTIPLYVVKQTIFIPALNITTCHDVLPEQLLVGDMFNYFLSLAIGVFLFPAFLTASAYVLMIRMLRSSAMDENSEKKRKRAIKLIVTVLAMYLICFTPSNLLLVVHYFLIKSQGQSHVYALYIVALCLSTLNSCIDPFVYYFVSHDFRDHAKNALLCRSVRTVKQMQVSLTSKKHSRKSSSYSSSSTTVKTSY
Experimental: Cells were loaded with Fluo-8 NW calcium dye (AAT Bioquest) for 30 min at 37 °C before compounds in Hank’s balanced salt solution (HBSS, ThermoFisher Scientific) with 20 mM HEPES (ThermoFisher Scientific), 0.1% bovine serum albumin (BSA, Sigma) and 0.5% DMSO were added and simultaneously evaluated for changes in intracellular [Ca^2+] using FLIPR TETRA (Molecular Devices) to detect agonism. For each concentration, the difference between the maximum peak Ca^2+ response and baseline response is reported. […] Antagonism experiments were also carried out on 1321N1-PAR2[WT], 1321N1-PAR2[F154A], and 1321N1-PAR2[G157C] as described. Experiments with trypsin in 1321N1-hPAR2 cells were performed in the presence of 1 µM Vorapaxar (Chemtronica) to remove any interference of PAR1 activity. […] Antagonism experiments for CHO-hPAR2 and HT-29 cells were performed in 96-well plates at 30,000 cells/well. Cells were loaded with Fluo-3 AM calcium dye (Sigma-Aldrich) for 60 min at 37 °C in HBSS with 1% FBS, 0.2% pluronic acid, 20 mM HEPES and 2.5 mM probenecid prior to the addition of antagonist. The antagonist was pre-incubated for 60 min at 37 °C followed by the addition of bovine trypsin (30 nM) at EC80. Intracellular [Ca^2+] flux was measured using FLIPR TETRA (Molecular Devices) and the difference between the maximum peak Ca^2+ response and baseline response is reported.
Binding data were analysed using the One site – Fit Ki model in GraphPad Prism 8 (GraphPad Software) to determine binding affinity. Pharmacology in vitro potency data was analysed with a 4-parameter logistic fit using the equation y = Bottom + (Top − Bottom)/[…] where y is the response, x is the 10-logarithm of the drug concentration, Bottom is no response and Top is full response in GraphPad Prism 8 or Genedata Screener (Genedata). pEC50 and pIC50 data are presented as mean ± standard error of the mean (s.e.m.) derived from the number of independent experiments stated. Schild slope analysis was calculated using Graphpad Prism 8 Gaddum/Schild EC50 global fitting (shared model parameters between all data sets) competitive model. […] Schild slope quantifies the shifts in agonist response in the presence of antagonist, a Schild slope of 1 indicates the antagonist is competitive and extra-sum-of-squares F-test (p < 0.05) was used to compare the calculated Schild slope against a hypothetical Schild slope of 1. […] The relative activity was calculated using (EmaxEC50’)/(Emax’EC50) with the Hill slope help constant at 1. EC50’ and Emax’ denote the EC50 and Emax in the absence of allosteric modulator, while EC50 and Emax denote those measured in the presence of allosteric modulator. When the Hill slope = 1, the relative activity plot approaches an asymptote corresponding to the estimate of the γ value.

[1] = target: T2, beta-tryptase (uniprot P20231) (Homo sapiens, UniProt P20231); test: Tryptase enzyme activity assay; format: biochemical; settings: 10 µM, n=1
T2 construct: made in house; host or cells: Pichia pastoris
T2 sequence (P20231 31-275): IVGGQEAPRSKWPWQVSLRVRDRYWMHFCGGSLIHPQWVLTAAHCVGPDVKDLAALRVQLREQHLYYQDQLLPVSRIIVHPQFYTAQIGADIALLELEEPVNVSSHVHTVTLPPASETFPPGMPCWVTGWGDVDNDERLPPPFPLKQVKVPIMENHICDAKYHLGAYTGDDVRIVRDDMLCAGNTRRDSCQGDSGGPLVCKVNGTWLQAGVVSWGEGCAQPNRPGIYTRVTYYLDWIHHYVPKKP
Experimental: Tryptase Enzyme Activity Assay. The tryptase assay was carried out using beta-tryptase (uniprot P20231) produced in Pichia pastoris and using Tos-Gly-Pro-Lys-pNA as substrate (25 mM stock in ethanol) in 100 mM Tris pH 8.0, 100 mM NaCl, 10% glycerol, 0.5 mg mL-1 BSA, 0.1% DDM. Substrate (250 µM) was pre-incubated with test compound (10 µM) in assay buffer (200 ul) in clear bottom 96 well Greiner plates at room temperature. The re action was started by the addition of tryptase to a final concentration of 4.7 nM. Co nversion was recorded in a plate reader by monitoring the increase of absorption at λ = 405 nm over time. Activity was determined by linear fit of initial rate.

[2] = test system: myeloperoxidase (MPO) activity; test: Myeloperoxidase assay on rat paw tissue; format: in vivo; settings: for MPO activity (unit mg^-1): 2f-induced rat paw oedema, paw tissue, individual animals (Figure 5i); for Myeloperoxidase (MPO) activity increased by 2f-LIGRLO-NH2: pre-treatment, 30 min
Experimental: Rat paw tissues were collected, snap-frozen with liquid N2, and stored at −80 °C. Samples were cut with a scalpel, weighed, and added to MPO buffer (50 mM potassium phosphate buffer, pH 6.0) to a concentration of 200 mg ml^−^1, before homogenising using zirconium oxide beads (1 and 2 mm, Next Advance, USA) and a Bullet Blender® homogeniser (Next Advance, USA). Homogenised tissues were diluted to 100 mg ml^−1 with MPO buffer containing 1% hexadecyl trimethylammonium bromide (Sigma-Aldrich, USA). Samples were then sonicated for 5 min, centrifuged at 13,000 × g for 10 min at 4 °C, and the clear supernatant for each sample was collected.

Row | Structure (SMILES) | Ca^2+ mobilisation tested as agonist, Fig 1c source data (hPAR2; M -4.38018) | Ca^2+ mobilisation tested as agonist, Fig 1c source data (hPAR2; M -4.88008) | Ca^2+ mobilisation tested as agonist, Fig 1c source data (hPAR2; M -5.38018) | Ca^2+ mobilisation tested as agonist, Fig 1c source data (hPAR2; M -5.88008) | Ca^2+ mobilisation tested as agonist, Fig 1c source data (hPAR2; M -6.38007) | Ca^2+ mobilisation tested as agonist, Fig 1c source data (hPAR2; M -6.88008) | Ca^2+ mobilisation tested as agonist, Fig 1c source data (hPAR2; M -7.37997) | Ca^2+ mobilisation tested as agonist, Fig 1c source data (hPAR2; M -7.88008) | Ca^2+ mobilisation tested as agonist, Fig 1c source data (hPAR2; M -8.37986) | Ca^2+ mobilisation tested as agonist, Fig 1c source data (hPAR2; M -8.87976) | agonist activity (tested as agonists) (hPAR2) | inhibition of tryptase activity [1] | MPO activity (unit mg^-1) [2] | Myeloperoxidase (MPO) activity increased by 2f-LIGRLO-NH2 [2] | also measured
1 | CNC(=O)[C@H]1CC[C@@H](NC(=O)[C@H](CC2CCCCC2)NC(=O)c2cn(Cc3ccccc3)nn2)c2ccccc21 [AZ2429] |  |  |  |  |  |  |  |  |  |  |  |  |  |  | higher potency than SLIGKV-NH2, Ca^2+ signalling (hPAR2; 1321N1-hPAR2): 7 fold; lower potency than GB110, Ca^2+ signalling (hPAR2; 1321N1-hPAR2): 6 fold; EC50 (hPAR2; 1321N1-hPAR2 cells, mean ± s.e.m., read-out: Ca^2+ flux pEC50 (converted)): 166 nM; Ca2+ response (Fig 2c), individual replicate values (hPAR2; [compound],M -4.30103): 115.742 and 78.7868 and 73.0001 and 99.0117; Ca2+ response (Fig 2c), individual replicate values (hPAR2; [compound],M -4.77815): 114.252 and 90.1883 and 78.2712 and 103.481; Ca2+ response (Fig 2c), individual replicate values (hPAR2; [compound],M -5.25527): 97.9804 and 100.329 and 107.319 and 71.9688; Ca2+ response (Fig 2c), individual replicate values (hPAR2; [compound],M -5.73239): 87.2091 and 90.6467 and 67.5571 and 89.0425; Ca2+ response (Fig 2c), individual replicate values (hPAR2; [compound],M -6.20952): 54.0357 and 69.6197 and 81.4796 and 66.5831; Ca2+ response (Fig 2c), individual replicate values (hPAR2; [compound],M -6.68664): 45.3269 and 46.8166 and 52.6033 and 41.6601; Ca2+ response (Fig 2c), individual replicate values (hPAR2; [compound],M -7.16376): 19.1435 and 34.6702 and 20.5758 and 32.3784; Ca2+ response (Fig 2c), individual replicate values (hPAR2; [compound],M -7.64088): 5.851 and 8.888 and 9.461 and 7.513; Ca2+ response (Fig 2c), individual replicate values (hPAR2; [compound],M -8.118): -2.628 and 1.21 and 2.414 and 2.5854; Ca2+ response (Fig 2c), individual replicate values (hPAR2; [compound],M -8.59512): -2.8 and -3.316 and -1.4252 and -1.712
2 | C[C@@H](C1CCCCC1)n1c(-c2cc3c(cc2Br)OCO3)nc2cc(C(=O)Nc3ccc(C#N)cc3)ccc21 [AZ3451] | 2.619 and -1.693 and 12.8149 and 8.844 and 5.039 | 6.334 and 5.142 and -5.002 and 2.343 and 2.365 | 7.004 and 3.992 and 6.097 and 3.93 and 1.406 | 0.5481 and 1.501 and 3.614 and 4.082 and 2.434 | 1.705 and 0.03194 and -3.0303 and 2.1164 and 2.6397 | 1.523 and 0.2236 and 5.2939 and 1.134 and 0.3771 | 1.949 and 4.9505 and 1.716 and -0.3779 and 3.12 | 3.289 and 0.09582 and 3.3954 and 1.814 and 4.697 | 0.7917 and -0.8623 and -2.957 and 0.7559 and 2.503 | 1.34 and -1.757 and 1.643 and 4.989 and 1.8855 | no effect; also recorded: no agonist activity | no | 0.2692 unit mg^-1 and 0.2802 unit mg^-1 and 0.295 unit mg^-1 and 0.3577 unit mg^-1 | reduced almost to baseline | 
3 | CCCc1cc(F)ccc1C(O)c1ncc[nH]1 (centres unmarked) [AZ8838] | 2.862 and -0.09582 and -3.103 and -1.512 and -1.8855 | -0.3654 and 0.4152 and -1.57 and -6.425 and -2.983 | 1.583 and 0.2874 and -4.491 and -0.4535 and -1.063 | 3.532 and 5.014 and 4.491 and 1.663 and -0.1714 | 1.035 and 1.437 and 3.98 and 0.4535 and 1.817 | 1.705 and 1.246 and -5.002 and 2.343 and 3.3939 | 2.862 and -1.309 and -0.8397 and 2.948 and 1.406 | 2.375 and -2.268 and 1.1318 and 4.308 and 1.268 | -1.218 and 0.543 and 2.665 and 1.436 and 3.188 | 4.6285 and 0.6707 and 4.491 and -8.012 and -2.845 | no effect; also recorded: no agonist activity | no | 0.2682 unit mg^-1 and 0.2003 unit mg^-1 and 0.454 unit mg^-1 and 0.2121 unit mg^-1 and 0.4127 unit mg^-1 | reduced almost to baseline | 
